Drawing on patent publication US20230203029A1 (priority 2020, published 2023), this text covers IC50 for 13 molecules.

pIC50: −log10 of the molar value. Read-outs that look alike come from different tables or passages of the source.

Experiment [1] has as its target T1, human MERTK cytoplasmic domain (Homo sapiens, UniProt Q12866).
T1 construct: human MERTK cytoplasmic domain (Carna Biosciences 08-108); purchased Carna Biosciences 08-108
Description: biochemical. Conditions: 30 uM ATP, read-out: Assay 1a Mer IC50 30 uM ATP. The procedure:
Assay 1a—MERTK HTRF KinEASE-TK Assay
The enzymatic reaction was carried out for 30 min at room temperature. 10 μL TK Antibody-Cryptate/Streptavidin-XL665 (Cisbio 610SAXLG) was then added for 60 min, including EDTA containing detection buffer (Cisbio 62SDBRDF) to stop the reaction.

The target in experiment [2] is T2, recombinant human MERTK expressed in live cells (HEK 293, MERTK-Nanoluc fusion vector) (Homo sapiens, UniProt Q12866).
T2 construct: host or cells: HEK 293
T2 sequence (Q12866 21-999): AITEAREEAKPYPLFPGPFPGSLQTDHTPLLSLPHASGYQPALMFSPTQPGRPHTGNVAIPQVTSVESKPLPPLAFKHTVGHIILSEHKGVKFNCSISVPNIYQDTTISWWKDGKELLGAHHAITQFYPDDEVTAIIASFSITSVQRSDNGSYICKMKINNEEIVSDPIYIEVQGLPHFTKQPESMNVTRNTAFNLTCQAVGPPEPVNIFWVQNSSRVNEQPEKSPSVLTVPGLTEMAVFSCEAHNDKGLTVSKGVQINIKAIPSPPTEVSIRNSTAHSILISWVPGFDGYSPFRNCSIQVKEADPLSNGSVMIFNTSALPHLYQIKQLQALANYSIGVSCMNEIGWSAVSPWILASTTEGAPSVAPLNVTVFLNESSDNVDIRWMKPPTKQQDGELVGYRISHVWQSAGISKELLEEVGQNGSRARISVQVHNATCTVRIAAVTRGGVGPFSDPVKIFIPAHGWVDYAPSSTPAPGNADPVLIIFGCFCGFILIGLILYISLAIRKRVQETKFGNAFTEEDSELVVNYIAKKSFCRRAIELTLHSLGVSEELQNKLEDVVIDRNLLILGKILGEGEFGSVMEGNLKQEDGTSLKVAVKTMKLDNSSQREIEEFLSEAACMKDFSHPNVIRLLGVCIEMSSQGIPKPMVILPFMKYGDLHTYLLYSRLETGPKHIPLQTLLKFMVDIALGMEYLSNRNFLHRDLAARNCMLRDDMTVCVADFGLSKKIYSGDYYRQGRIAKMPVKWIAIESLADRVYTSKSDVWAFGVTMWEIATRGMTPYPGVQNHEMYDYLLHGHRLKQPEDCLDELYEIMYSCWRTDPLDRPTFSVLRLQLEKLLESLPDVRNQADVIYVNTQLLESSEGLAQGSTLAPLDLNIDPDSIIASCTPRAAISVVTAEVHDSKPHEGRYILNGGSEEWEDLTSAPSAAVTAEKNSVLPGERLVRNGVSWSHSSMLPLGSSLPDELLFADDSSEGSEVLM
Description: Assay 2 MERTK cellular target engagement (NanoBRET TE) assay. Conditions: HEK 293 cells, tracer K9, 2 h at 37° C.; read-out: Assay 2 Cell TE MER IC50. Type of experiment: cell-based.

Experiment [3] deals with T3, recombinant human AXL expressed in live cells (HEK, AXL-Nanoluc fusion vector) (Homo sapiens, UniProt P30530).
T3 construct: host or cells: HEK
T3 sequence (P30530 26-894): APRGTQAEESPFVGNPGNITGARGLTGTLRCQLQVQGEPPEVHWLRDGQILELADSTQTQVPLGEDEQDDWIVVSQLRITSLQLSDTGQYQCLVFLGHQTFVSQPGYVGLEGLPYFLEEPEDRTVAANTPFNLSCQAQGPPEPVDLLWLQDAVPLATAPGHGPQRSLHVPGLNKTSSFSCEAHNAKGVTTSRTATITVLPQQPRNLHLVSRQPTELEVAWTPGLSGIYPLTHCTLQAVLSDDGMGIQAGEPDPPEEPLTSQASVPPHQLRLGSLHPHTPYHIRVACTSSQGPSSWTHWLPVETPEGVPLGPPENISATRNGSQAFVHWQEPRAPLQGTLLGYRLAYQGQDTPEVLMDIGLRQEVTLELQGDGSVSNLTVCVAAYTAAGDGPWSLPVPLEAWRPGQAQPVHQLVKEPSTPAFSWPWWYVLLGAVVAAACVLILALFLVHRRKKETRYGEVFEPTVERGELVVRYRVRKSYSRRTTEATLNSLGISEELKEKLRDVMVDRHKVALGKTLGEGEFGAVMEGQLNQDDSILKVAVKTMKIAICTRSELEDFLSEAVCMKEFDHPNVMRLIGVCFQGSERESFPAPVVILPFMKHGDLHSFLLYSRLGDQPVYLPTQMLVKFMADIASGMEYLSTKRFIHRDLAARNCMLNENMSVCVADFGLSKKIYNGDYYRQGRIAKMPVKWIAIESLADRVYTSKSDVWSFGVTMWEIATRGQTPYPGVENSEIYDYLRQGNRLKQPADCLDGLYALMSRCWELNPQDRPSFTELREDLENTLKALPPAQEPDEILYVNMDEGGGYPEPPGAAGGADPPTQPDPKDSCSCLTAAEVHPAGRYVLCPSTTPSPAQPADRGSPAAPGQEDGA
Description: Assay 3 AXL cellular target engagement (NanoBRET TE) assay. The experiment is classed as cell-based. The method, then:
Assay 3—AXL Cellular Target Engagement (TE) Assay
Compound affinities for recombinant human AXL expressed in live cells were assessed via the Promega NanoBRET TE assay technology. Human Embryonic Kidney (HEK) cells were transiently transfected with the AXL-Nanoluc fusion vector (Promega Cat NV1071) using Fugene HD reagent (Promega E2311). […] Incubations were conducted for 2 h at 37° C., after which 20 μl NanoGlo substrate/inhibitor mix (Promega N2161) was added to each well for 2-3 min. The plate was then read on a BMG Pherastar FSX using a NanoBRET filter to record donor emission at 450 nm and acceptor fluorophore emission at 610 nm. From this the BRET ratio (acceptor 610 nm/donor 450 nm) for each data point was calculated.

The mark [4] stands for this setting: * Maximal inhibition achieved 40%.

As to `O=C(Nc1ccc(Nc2ccnc3cnc(N4CCC(O)CC4)cc23)cc1)c1cccn(-c2ccccc2)c1=O` [Example 2, N-[4-[[6-(4-hydroxy-1-piperidyl)-1,7-naphthyridin-4-yl]amino]phenyl]-2-oxo-1-phenyl-pyridine-3-carboxamide], the pIC50 in experiment [1] was 7.23; in experiment [2], 7.33; in experiment [3], 6.76.
Regarding `O=C(NOCCO)c1cc2c(Nc3ccc(NC(=O)c4cccn(-c5ccccc5)c4=O)cc3)ccnc2cn1` [Example 5.1, N-(2-hydroxyethoxy)-4-[4-[(2-oxo-1-phenyl-pyridine-3-carbonyl)amino]anilino]-1,7-naphthyridine-6-carboxamide], the pIC50 in experiment [1] is 7.15; in experiment [2], 6.87; in experiment [3], 6.47.
For `CN1CCC(n2cc(-c3cc4c(Nc5ccc(NC(=O)c6cccn(-c7ccccc7)c6=O)cc5)ccnc4cn3)cn2)CC1` [Example 4.1, N-[4-[[6-[1-(1-methyl-4-piperidyl)pyrazol-4-yl]-1,7-naphthyridin-4-yl]amino]phenyl]-2-oxo-1-phenyl-pyridine-3-carboxamide], the negative logarithm of the IC50 (pIC50) in experiment [1] is 7.43; in experiment [2] it was 6.88; in experiment [3], 6.88.
In the case of `O=C(Nc1ccc(Nc2ccnc3cnc(N4CCOCC4)cc23)cc1)c1cccn(-c2ccccc2)c1=O` [Example 2.1, N-[4-[(6-morpholino-1,7-naphthyridin-4-yl)amino]phenyl]-2-oxo-1-phenyl-pyridine-3-carboxamide], the pIC50 in experiment [1] was 6.71; in experiment [2], 6.79; in experiment [3], 5.85.
As for `CNC(=O)c1cc2c(Nc3ccc(NC(=O)c4cccn(-c5ccccc5)c4=O)cc3)ccnc2cn1` [Example 5.3, N-methyl-4-[4-[(2-oxo-1-phenyl-pyridine-3-carbonyl)amino]anilino]-1,7-naphthyridine-6-carboxamide], the pIC50 in experiment [1] (setting [4]) was 7.96; in experiment [2], 7.38; in experiment [3], 7.33.
Turning to `O=C(Nc1ccc(Nc2ccnc3cnc(N4CCNCC4)cc23)cc1)c1cccn(-c2ccc(F)cc2)c1=O` [Example 1.2, 1-(4-fluorophenyl)-2-oxo-N-[4-[(6-piperazin-1-yl-1,7-naphthyridin-4-yl)amino]phenyl]pyridine-3-carboxamide], the pIC50 was 7.70 in experiment [1], 7.55 in experiment [2] and 6.94 in experiment [3].
In the case of `O=C(Nc1ccc(Nc2ccnc3cnc(N4CCNCC4)cc23)cc1)c1cccn(-c2ccccc2)c1=O` [Example 1, 2-oxo-1-phenyl-N-[4-[(6-piperazin-1-yl-1,7-naphthyridin-4-yl)amino]phenyl]pyridine-3-carboxamide], the negative-log IC50 (pIC50) in experiment [1] is 7.17; in experiment [2], 6.76; in experiment [3], 6.84.
Take `NC(=O)c1cc2c(Nc3ccc(NC(=O)c4cccn(-c5ccccc5)c4=O)cc3)ccnc2cn1` [Example 5.2, 4-[4-[(2-oxo-1-phenyl-pyridine-3-carbonyl)amino]anilino]-1,7-naphthyridine-6-carboxamide]: the negative logarithm of the IC50 (pIC50) was 7.77 in experiment [1] (setting [4]), 6.76 in experiment [2] and 6.44 in experiment [3].
For `CC(C)n1cc(C(=O)Nc2ccc(Nc3ccnc4cnc(N5CCNCC5)cc34)cc2)c(=O)n(-c2ccc(F)cc2)c1=O` [Example 1.1, 3-(4-fluorophenyl)-1-isopropyl-2,4-dioxo-N-[4-[(6-piperazin-1-yl-1,7-naphthyridin-4-yl)amino]phenyl]pyrimidine-5-carboxamide], the pIC50 in experiment [1] was 7.12; in experiment [2], 5.76; in experiment [3], 8.54.
For `O=C(Nc1ccc(Nc2ccnc3cnc(N4CCCNCC4)cc23)cc1)c1cccn(-c2ccccc2)c1=O` [Example 2.2, N-[4-[[6-(1,4-diazepan-1-yl)-1,7-naphthyridin-4-yl]amino]phenyl]-2-oxo-1-phenyl-pyridine-3-carboxamide] the same measures were 7.27, 7.63 and 6.72.
`O=C(N[C@H]1CC[C@H](O)CC1)c1cc2c(Nc3ccc(NC(=O)c4cccn(-c5ccccc5)c4=O)cc3)ccnc2cn1` [Example 5, N-(4-hydroxycyclohexyl)-4-[4-[(2-oxo-1-phenyl-pyridine-3-carbonyl)amino]anilino]-1,7-naphthyridine-6-carboxamide]: the pIC50 in experiment [1] is 7.22; in experiment [2] it was 7.02; in experiment [3] it was 7.01.
As to `CC(C)n1cc(C(=O)Nc2ccc(Nc3ccnc4cnc(N5CCNCC5)cc34)cc2)c(=O)n(-c2ccccc2)c1=O` [Example 1.3, 1-isopropyl-2,4-dioxo-3-phenyl-N-[4-[(6-piperazin-1-yl-1,7-naphthyridin-4-yl)amino]phenyl]pyrimidine-5-carboxamide], the negative logarithm of the IC50 (pIC50) in experiment [1] is 6.74; in experiment [2] it was 6.59; in experiment [3], 7.61.
For `CN1CCC(NC(=O)c2cc3c(Oc4ccc(NC(=O)c5cccn(-c6ccccc6)c5=O)cc4)ccnc3cn2)CC1` [Example 6, N-(1-methyl-4-piperidyl)-4-[4-[(2-oxo-1-phenyl-pyridine-3-carbonyl)amino]phenoxy]-1,7-naphthyridine-6-carboxamide] the same measures were 7.28, 6.96 and 6.96.
